Test results as given in patent US4895589A, “Heterocyclic compounds” (Imperial Chemical Industries PLC, priority 1985, dated 1990).
Where two headings read alike, the source gives them in different places.

What was measured:
[1] = test system: Apple; assay: Whole Plant Screen (2), apple; format: in vivo, Apple (Red Delicious); conditions: AP, 4000 ppm, side-by-side, Table XIII
Protocol: After 2-6 weeks in the glasshouse, depending on the time of year, the plants were visually assessed for morphological characteristics. Formulation blanks were used as controls to assess the plants.
Compound numbers 1, 5 and 7 (of the present invention) were tested against compounds A, B, C and D (compound Nos. 12, 2, 24 and 50 of Table 1 EP No. 0052424) on whole plant screen (2). The compounds were tested of plant growth regulator activity against five species and for various growth effects relevant to plant growth regulation. The structures are set out in FIG. 1.
The plant species used in this screen are presented in Table XII with the leaf stage at which they were sprayed Each chemical was applied at 4000 ppm (4 kg/ha in a 1000 l/ha field volume) using a tracksprayer and a SS8004E (Teejet) nozzle. […]

[2] = test system: Apples; assay: Intermediate Retardant Test, apples; format: in vivo, Apples (Red Delicious); conditions: 672 h, ~28 days, read-out: Percentage Reduction in Height of Apples (Compared to formulation blank)
In short: (§1)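 Percentage height reduction relative to the formulation blank, assessed about 28 days post-treatment as height to top-most ligule (rice, spring barley) or to apex (apples). Compounds sprayed overall at 1000 and 4000 ppm (1 and 4 kg ha^-1 in 1000 l/ha), covering root and foliar uptake; rice grown immersed in paddy pots.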

[3] = test system: Rice; assay: Whole Plant Screen (2), rice; format: in vivo, Rice (Ishikari); conditions: RC, 4000 ppm, side-by-side, Table XIII
In short: (§2)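 Foliar spray at 4000 ppm (4 kg/ha in 1000 l/ha) by tracksprayer at the listed leaf stage. Plants grown in glasshouse at 25° C. day/22° C. night, 16° C./13° C. for wheat, 16 h photoperiod. Morphology visually assessed after 2-6 weeks against formulation blanks.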

[4] = test system: Rice; assay: Intermediate Retardant Test, rice; format: in vivo, Rice (Ishikari); conditions: Oryza sativa, 672 h, ~28 days, read-out: Percentage Reduction in Height of Rice (Compared to formulation blank)
In short: as §1

[5] = test system: Soya; conditions: SY, 4000 ppm, 2-3 weeks
[6] = test system: Wheat; assay: Whole Plant Screen (2), wheat; format: in vivo, Wheat (Timmo); conditions: WW, 4000 ppm, side-by-side, Table XIII
In short: as §2

[7] = test system: Wheat; conditions: WW, 4000 ppm, 2-3 weeks
[8] = test system: Tomato; conditions: TO, 4000 ppm, 2-3 weeks
Protocol: (§3) The compounds were tested for plant growth regulator activity against up to tweleve plant species for various growth effects relevant to plant growth regulation.
(§4) After spray, the plants were grown in a glasshouse with 25° C. day/22° C. night temperatures and supplementary lighting was supplied when necessary (from mercury vapour lamps), to provide a 16 hour photoperiod. The exception to this were the temperate cereals, wheat and barley, which were grown in 16° C. day 13° C. night temperatures
(§5) After 2-3 weeks in the glasshouse, depending on the time of year, the plants were visually assessed for morphological characteristics. Formulations blanks were used as controls to assess the Plants.

[9] = test system: Agrostis tenius; conditions: AT, 4000 ppm, 2-3 weeks
Protocol: as §3, §4, §5

[10] = test system: plant species of Whole Plant Screen (1) or (2); assay: Across screen comparison: total retardation relative to paclobutrazol (Whole Plant Screens (1) and (2)); format: in vivo; conditions: compounds of Table I, Table X
In short: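 Compounds, each tested in Whole Plant Screen (1) or (2), are compared by summing retardation scores over all species tested. Each total is expressed as a percentage of the total retardation from paclobutrazol, the standard run in every test.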

[11] = test system: Barley; conditions: BR, 4000 ppm, 2-3 weeks
Protocol: as §3, §4, §5

[12] = test system: Spring Barley; assay: Intermediate Retardant Test, spring barley; format: in vivo, Spring Barley (Atem/kym); conditions: Hordeum vulgare, 672 h, ~28 days, read-out: Percentage Reduction in Height of Spring Barley (Compared to formulation blank)
In short: as §1

[13] = test system: Barley; assay: Whole Plant Screen (2), barley; format: in vivo, Barley (Atem); conditions: BR, 4000 ppm, side-by-side, Table XIII

| Compound | G = Greening effect [1] | percent reduction in plant height vs formulation blank at 1000 ppm ([2]; side-by-side, Table XVII) [%] | percent reduction in plant height vs formulation blank at 4000 ppm ([2]; Table IX) [%] | percent reduction in plant height vs formulation blank at 4000 ppm ([2]; side-by-side, Table XVII) [%] | G = Greening effect [3] | I = Interligular or internodal length reduction [3] | R = Retardation [3] | T = Tillering or side shooting [3] | Percent reduction in rice plant height vs formulation blank at 1000 ppm ([4]; Table VII) [%] | Percent reduction in rice plant height vs formulation blank at 1000 ppm ([4]; side-by-side, Table XVI) [%] | Percent reduction in rice plant height vs formulation blank at 4000 ppm ([4]; Table VII) [%] | Percent reduction in rice plant height vs formulation blank at 4000 ppm ([4]; side-by-side, Table XVI) [%] | Retardation score (1-3) with greening (G), apical damage (A), tillering/side shooting (T) [5] | T = Tillering or side shooting [6] | Retardation score (1-3) with greening (G), apical damage (A), tillering/side shooting (T) [7] | Retardation score (1-3) with greening (G), apical damage (A), tillering/side shooting (T) [8] | Retardation score (1-3) with greening (G), apical damage (A), tillering/side shooting (T) [9] [G] | Total Retardation expressed as a percentage of the total retardation caused by paclobutrazol [10] | Retardation score (1-3) with greening (G), apical damage (A), tillering/side shooting (T) [11] | height reduction vs blank at 1000 ppm ([12]; Table VIII) [%] | also measured |
| --- | --- | --- | --- | --- | --- | --- | --- | --- | --- | --- | --- | --- | --- | --- | --- | --- | --- | --- | --- | --- | --- |
| CCCCC#CC(O)(Cn1cncn1)C(C)(C)C (stereo not shown) [Compound 1, 2,2-dimethyl-3-hydroxy-3-(hex-1-yne-1-yl)-4-(1,2,4-triazol-1-yl)-butane] | 1 (10-30%) | 0 | 51.6 | 41 | 2 (31-60%) | 3 (61-100%) | 2 (31-60%) | 3 (61-100%) | 24.6 | 31 | 49.9 | 53 | 1G | 1 (10-30%) | 3T | 2G | 3 | 84.0 % of paclobutrazol | 3T | 32.3 | height reduction vs blank at 1000 ppm ([12]; side-by-side, Table XV): 28%; height reduction vs blank at 4000 ppm ([12]; Table VIII): 60.7%; height reduction vs blank at 4000 ppm ([12]; side-by-side, Table XV): 62%; G = Greening effect [13]: 1 (10-30%); T = Tillering or side shooting [13]: 1 (10-30%) |
| CC(C)CC#CC(O)(Cn1cncn1)C(C)(C)C (stereo not shown) [Compound 7, 2,2-dimethyl-3-hydroxy-3-(4-methyl-pent-1-yne-1-yl)-4-(1,2,4-triazol-1-yl)-butane] | 1 (10-30%) | 30 | 31 | 60 | 1 (10-30%) | 3 (61-100%) | 2 (31-60%) | 3 (61-100%) | 11.1 | 27 | 26 | 53 | 3GAT | 1 (10-30%) | 3GT | 2GT | 2 | 58.6 % of paclobutrazol | 2GT | 33 | percent reduction in plant height vs formulation blank at 1000 ppm ([2]; Table IX): 15%; G = Greening effect [6]: 1 (10-30%); height reduction vs blank at 1000 ppm ([12]; side-by-side, Table XV): 20%; height reduction vs blank at 4000 ppm ([12]; Table VIII): 75.4%; height reduction vs blank at 4000 ppm ([12]; side-by-side, Table XV): 51%; G = Greening effect [13]: 1 (10-30%); I = Interligular or internodal length reduction [13]: 3 (61-100%) |
